Where two headings read alike, the source gives them in different places. No end group written: not given here.
Legend:
[1] = tested on: HGF induced activation of the receptor tyrosine kinase Met and ERK; assay: HGF-induced activation of Met and ERK in BSp73ASs6 cells (western blot); type: cell-based, rat; settings: HGF 10 ng/ml, peptide added 10 min before induction
Experimental: (§1) Serum-starved cells (24 hours) were induced with the growth factor HGF (10 ng/mL) at 37° C. for 5 minutes. Where indicated, the cells were treated with peptides (100 ng/ml) prior to induction at 37° C. for 10 minutes (100 ng/mL CD44v6 peptide or control peptide). Following the induction with HGF, cells were washed with ice-cold phosphate-buffered saline (PBS). To detect activated Met and Erk, cells were lysed in sodium dodecyl sulfate (SDS)-sample buffer containing 100 mM dithiothreitol (DTT), boiled and subjected to western blot analysis using antibodies against phospho-Met and ERK. The loading controls were performed on the same blot after stripping (62.5 mM Tris, pH 6.8, 2% SDS, 0.8% DTT) by probing with the Met respectively ERK antibody. Blots were stained using the enhanced chemiluminescence system (Thermo Fisher Scientific, Schwerte, Germany). Bands in western blot analysis were quantified with the program Image J (National Institutes of Health).
The PEG-control peptide and PEG-rat CD44v6 peptide were compared for their ability to block HGF induced activation of the receptor tyrosine kinase Met and ERK. […]
Activation of ERK and Met was determined by standard SDS and Western Blotting techniques using a phospho-Met and phospho-Erk specific antibody (phospho-Met clone D16 cell signaling, phospho-Erk p42/44 cell signaling)

BSp73ASs6 tumors = settings: rat, iv
Experimental: In vivo imaging of the subcutaneously grown BSp73ASs6 tumors in BD10 or BDX rats was performed using the near infrared fluorescence (NIRF)-imaging system Optix MX2 (ART, Montreal, Canada) as described earlier (Napp et al., Int J Cancer (2010), 127:1958-1974). To avoid autofluorescence of fur, rats were shaved around the tumor prior to imaging. Subsequently, animals were anesthetized using 2% isoflurane and gently fixed on the devices' heated plate for the entire time of data acquisition. To reduce fluorescence background, rats were fed with chlorophyll-reduced food (Provimi Kliba AG, Kaiseraugst, Switzerland) for one week prior NIRF imaging. All in vivo analyses were preceded by native scans of animals without any injection of the fluorescent probe. For in vivo analysis, rats were injected with 200 DY681-labeled rat v6 11mer peptide or the human v6 11mer peptide via the tail vein. […]
DY681 fluorescence was measured using excitation at 670 nm in combination with a 700 nm long-pass emission filter. […] Data sets were analyzed with OptiView (ART).
For in vivo experiments, BSp73ASs6 cells were injected subcutaneously into syngeneic rats. […] The accumulation of the fluorescence was measured in the tumor region by Optix MX2 at the indicated time points. […] Then, in vivo binding kinetics of the Dy681-labeled v6 peptides to the subcutaneous tumors were determined.

BSp73ASs6 cells = assay: Staining of fixed BSp73ASs6 cells with DY681-labeled peptides; type: binding, rat; settings: DY681-labeled peptide, one hour
Experimental: (§2) ASs6 or L3.6p1 cells were seeded at 5,000 cells/well of a Lab-Tek® Chamber Slide™ (Nunc, Napierville, Ill., USA). On the following day the cells were washed with cold PBS and fixed with 4% Formalin for 30 min at RT. Unspecific binding was blocked with 1% BSA in PBS for 1 hour at RT. The cells were incubated for 1 hour with the DY681-labeled peptides. After three washing steps with PBS the cover slips were mounted with Fluorescence Mounting Medium (Dako, Glostrup, Denmark) and the immunofluorescence was measured by a laser scanning confocal microscope Leica TCS2 SP2 (Exton, Pa., USA) and processed using Leica confocal software. A 20× objective was used for imaging.

Met = settings: Matzke et al., Cancer Res. (2005), cited from earlier work
[2] = tested on: Met activation and downstream signaling to ERK; assay: HGF-induced activation of Met and ERK in L3.6p1 cells (western blot); type: cell-based, human; settings: HGF 10 ng/ml
Experimental: as §1
To expand the studies to human pancreatic tumors, the highly metastatic human pancreatic carcinoma cells L3.6p1 (Bruns, et al. Neoplasia (1999), 1(1):50-62) were investigated. These cells originate from the […] cells that have been passaged several times in the liver and the pancreas, a step that rendered them more and more metastatic. It was confirmed that Met is dependent on CD44v6 for its activation and signaling in these cells (FIG. 4A). The L3.6p1 cells were treated with HGF in the presence or absence of a human v6 peptide of SEQ ID NO: 2 or SEQ ID NO:6 and Met activation and downstream signaling to ERK was measured.

L3.6p1 cells = assay: Staining of L3.6p1 cells with DY681-labeled peptides; type: binding, human; settings: DY681-labeled peptide
Experimental: as §2

L3.6p1 tumors = assay: In vivo and ex vivo imaging with Pearl Imager of mice bearing L3.6p1 tumors; design: species or system mouse
Experimental: In vivo imaging of the mice with the L3.6p1 tumors was performed using the Pearl™ Imager (LI-COR Biosciences, Bad Homburg, Germany) The system uses two lasers (685 and 785 nm) for excitation and a charge-coupled device detector for signal detection. The laser excitation enables a deep tissue penetration. With the near-infrared detection a high sensitivity due to the reduced tissue auto-fluorescence is achieved. In order to standardize the images we made use of the Pearl Cam Software. The animals were fed with chlorophyll-reduced food to reduce the fluorescence background one week before imaging (Regime 210, safe-diets, Augy, France). Prior to imaging the mice were anesthetized with 2.0% isoflurane. Animals were placed on the heated plate of the imager and continuous delivery of isoflurane was achieved through a nose cone in the imaging drawer. Images were captured at white light, 700 and 800 nm Animals were imaged prior to i.v. peptide injection and 24 h after injection with either DY681-labeled human v6 peptide or DY681-labeled rat v6 peptide as control Immediately after each imaging session animals were killed, tumor, liver and spleen isolated and scanned ex vivo at white light, 700 and 800 nm.

[3] = tested on: L3.6p1 pancreatic carcinoma cells; assay: Human orthotopic model, L3.6p1 cells in the pancreas of nude mice; type: in vivo, mouse
Experimental: In the case of the human orthotopic model, L3.6p1 pancreatic carcinoma cells (passage 24-26) were suspended in Hank's balanced salt solution (Invitrogen, Karlsruhe, Germany) after trypsinization. The cells were injected orthotopically in the pancreas of male nude mice as described (Bruns C J et al. (1999) Neoplasia 1(1):50-62). Two groups of 15 mice each were injected i.p. 7 days later with either the human v6 peptide respectively rat control peptide (20 μg). For all experiments described and depicted herein either the rat 14mer control peptide or the human 14mer peptide were used. All experiments were then repeated with the rat 5mer control peptide or the human 5mer peptide (N-R-W-H-E, SEQ ID NO: 2). […] The injection was repeated three times per week for 21 days. Two days after the last treatment the animals were killed.
7 μm thick paraffin sections were deparaffinized and rehydrated. For P-Met staining antigen unmasking was achieved by boiling the slides in 1 mM EDTA pH 8.0 followed by incubation for 15 minutes at a sub-boiling temperature, for CD31 staining the sections were treated with Proteinase K (8 μg/ml) for 10 min at 37° C. For immunofluorescence staining of P-Met, unspecific binding was blocked with 5% goat serum (DAKO, Glostrup, Denmark) (diluted in 1×PBS/0.3% Triton X-100) for 60 minutes. In the case of immunohistochemistry, endogenous peroxidases were at first blocked with 3% H2O2 in PBS followed by incubation with biotin blocking system (Dako, Glostrup, Denmark) and then unspecific binding was inhibited by incubation with 5% FCS in PBS. The sections were incubated with the P-Met antibody (D26, dilution 1:50 in 1×PBS/1% BSA/0.3% Triton X-100), Met antibody (C-28, dilution 1:50), GFP antibody (sc-101525, dilution 1:50) or antibody (5 μg/ml) over night or VFF18 (5 μg/ml) o/n at 4° C. After washing in PBS the sections were incubated with Alexa Fluor R 546 goat anti-rabbit (in case of immunofluorescence P-Met and Met staining, dilution 1:500) or a biotinylated secondary antibody (for immunohistochemical stainings rabbit anti-rat antibody for VFF18 and CD31, goat anti-rabbit for P-Met, cleaved Caspase-3 and cleaved Caspase-8 and rabbit anti-mouse for GFP, dilution 1:500) for 45 minutes. For DAB (3,3′-diaminobenzidine) staining the sections were treated with a streptavidin-peroxidase conjugate (Dako, Glostrup, Denmark) and developed with DAB substrate system (3,3′-diaminobenzidine; Biozol, Eching, Germany) For immunofluorescence DAPI was used for nuclear staining.
The three CD44v6 specific compounds (v6 5mer, PEG840-v6 5mer and PEG2000-v6 5mer of human origin) and a control peptide were applied in three concentrations (2 μg, 20 μg, 200 μg per injection) three times per week i.p. for 4 weeks. One week before start of the treatment the L3.6p1 tumor cells were orthotopically implanted into nude mice.
Animals were implanted orthotopically with L3.6p1 cells. Tumor growth was allowed for one week before the treatment with the linear v6 14mer, the cyclic v6 8mer as well as the control peptide (rat v6 14mer) was started. All peptides were injected three times per week at a concentration of 0.2, 2 and 10 μg per injection for 3 weeks. At the end of the treatment animals were sacrificed.
A comparison of different CD44v6 peptide derivatives was performed in animals bearing a orthotopic L3.6p1 tumor. 10 groups of 5 animals each received a dose of 20 μg peptide per injection three times per week for 3 weeks with the compounds listed in Table 4. Three weeks after starting the treatment the animals were sacrificed and analyzed for macroscopic metastases and tumor volume.

[4] = tested on: L3.6p1 pancreatic carcinoma cells; assay: as above; type: in vivo, mouse; settings: dose reduction experiment, 0.2 to 20 μg per injection three times per week for 3 weeks

WFENEWQGKNP (also: DY681 dye, position not given here) [DY681 rat v6 peptide, rat 11mer labeled with the fluorescent dye DY681]
inhibition of HGF-induced activation of Met and Erk [1]: inhibited Met activation
time of maximum fluorescence intensity over the tumor area (BSp73ASs6 tumors; in vivo): 1 days
duration of high fluorescence intensity over the tumor area in vivo (BSp73ASs6 tumors): at least 2 days
binding to BSp73ASs6 cells in tissue culture (BSp73ASs6 cells): bound to BSp73ASs6 cells in tissue culture

A-R-W-H-A (ARWHA) [A-R-W-H-A (SEQ ID NO: 3)]
inhibition of CD44v6 mediated activation of Met (Met): capable of abrogating Met activation
inhibition of CD44v6 mediated activation of Met (Met; listed as SEQ ID NO: 3): still active in inhibiting CD44v6 mediated activation of Met

WFGNRWHEGYR (also: DY681 dye, position not given here) [DY681 human v6 peptide, human 11mer labeled with the fluorescent dye DY681]
inhibition of HGF-induced activation (phosphorylation) of Met and ERK [2]: inhibited Met activation in L3.6p1 cells
binding to L3.6p1 cells in cell culture (L3.6p1 cells): bound to these cells in cell culture
fluorescence in the tumor in vivo (L3.6p1 tumors; one i.v. injection of 20 μg, 24 h after injection): accumulated specifically in the tumor
ex vivo fluorescence in primary tumors, livers and spleens (L3.6p1 tumors; organs excised 24 h after injection): binding not only to primary tumors but also to areas of the liver

cy[KGNRWHEG] (also: cyclic, ring type not given here) [cycl. 8 mer]
metastasis formation (liver) ([3]; 2 μg per injection i.p. three times per week): blocked metastatic spreading at 2 and 20 μg per injection very efficiently
outgrowth / size of the primary tumor ([3]; 20 μg per injection i.p. three times per week for three weeks, start one week after implantation): strongest reduction of tumor size
metastasis formation (liver) ([3]; 20 μg per injection i.p. three times per week, start one week after implantation, listed as cyclic 8mer): complete inhibition of metastasis
metastasis formation (liver) ([3]; 20 μg per injection i.p. three times per week, start one week after implantation, listed as cyclic v6 8mer): blocked metastatic spreading at 2 and 20 μg per injection very efficiently
size / growth of the primary tumor ([4]; listed as cyclic 8mer): reduces growth of the primary tumor
size / growth of the primary tumor ([4]; listed as cyclic v6 8mer): drastic effect on growth of the primary tumor

WFQNGWQGKNP (also: DY681 dye, position not given here) [DY681 mouse v6 peptide, mouse 11mer labeled with the fluorescent dye DY681, control, reference compound]
inhibition of HGF-induced activation of Met and Erk [1]: but not the mouse peptide inhibited Met activation
